Experimental data as given in publication PMC6222422, “Synthesis and Biological Evaluation of Novel Indole-Derived Thioureas” (Molecules : A Journal of Synthetic Chemistry and Natural …, 2018).
In brackets after ≈: the same amount, converted by molar mass.

Assays:
B. cereus ATCC 11778 = assay: MIC, twofold serial agar dilution; type: cell-based; conditions: Bacillus cereus, ATCC11778, 18 h, 35 °C, read-out: minimal inhibitory concentrations (MIC)
M. luteus ATCC 10240 = assay: MIC, twofold serial agar dilution; type: cell-based; conditions: Micrococcus luteus, ATCC10240, 18 h, 35 °C, read-out: minimal inhibitory concentrations (MIC)
S. aureus ATCC 6538 = assay: disc diffusion method; type: cell-based, Staphylococcus aureus; conditions: Staphylococcus aureus, ATCC6538, applied 400 µg per disc, dash = lack of the growth inhibition area, read-out: diameter of growth inhibitory zone (GIZ)
B. subtilis ATCC 6633 = assay: disc diffusion method; type: cell-based, Bacillus subtilis; conditions: Bacillus subtilis, ATCC6633, applied 400 µg per disc, dash = lack of the growth inhibition area, read-out: diameter of growth inhibitory zone (GIZ)
BVDV = assay: microbe, parasite or virus in culture; type: cell-based, bovine viral diarrhoea virus; conditions: Bovine viral diarrhea virus isolates and strains, MDBK, in Bos taurus, read-out: BVDV EC50
HSV-1 = assay: microbe, parasite or virus in culture; type: cell-based, human herpes 1; conditions: Human alphaherpesvirus 1, Vero 76, read-out: HSV-1 EC50
[1] = molecular target: T1, S. aureus topoisomerase IV (Staphylococcus aureus, UniProt P0C1S7+P0C1U9); conditions: 64 to 0.5 µg/mL, Figure 2
in vitro [2] = conditions: human
in vitro [3] = conditions: Syrian hamster (Mesocricetus auratus)
[4] = test system: methicillin-resistant strains of S. aureus (MRSA); assay: MIC against hospital strains; conditions: Staphylococcus aureus
[5] = molecular target: T1, S. aureus topoisomerase IV; assay: biochemical
[6] = hospital S. aureus MRSA strain 389/10
[7] = hospital S. aureus MRSA strain 390/10
[8] = hospital S. aureus MRSA strain 391/10
[9] = hospital S. aureus MRSA strain 392/10
[10] = hospital S. aureus MRSA strain 393/10
[11] = hospital S. aureus MRSA strain 394/10
[12] = hospital S. aureus MRSA strain 399/10
[13] = hospital S. aureus MRSA strain 450/11
[14] = hospital S. aureus MRSA strain 451/11
[15] = hospital S. aureus MRSA strain 452/11

T1 sequence (P0C1U9 whole entry): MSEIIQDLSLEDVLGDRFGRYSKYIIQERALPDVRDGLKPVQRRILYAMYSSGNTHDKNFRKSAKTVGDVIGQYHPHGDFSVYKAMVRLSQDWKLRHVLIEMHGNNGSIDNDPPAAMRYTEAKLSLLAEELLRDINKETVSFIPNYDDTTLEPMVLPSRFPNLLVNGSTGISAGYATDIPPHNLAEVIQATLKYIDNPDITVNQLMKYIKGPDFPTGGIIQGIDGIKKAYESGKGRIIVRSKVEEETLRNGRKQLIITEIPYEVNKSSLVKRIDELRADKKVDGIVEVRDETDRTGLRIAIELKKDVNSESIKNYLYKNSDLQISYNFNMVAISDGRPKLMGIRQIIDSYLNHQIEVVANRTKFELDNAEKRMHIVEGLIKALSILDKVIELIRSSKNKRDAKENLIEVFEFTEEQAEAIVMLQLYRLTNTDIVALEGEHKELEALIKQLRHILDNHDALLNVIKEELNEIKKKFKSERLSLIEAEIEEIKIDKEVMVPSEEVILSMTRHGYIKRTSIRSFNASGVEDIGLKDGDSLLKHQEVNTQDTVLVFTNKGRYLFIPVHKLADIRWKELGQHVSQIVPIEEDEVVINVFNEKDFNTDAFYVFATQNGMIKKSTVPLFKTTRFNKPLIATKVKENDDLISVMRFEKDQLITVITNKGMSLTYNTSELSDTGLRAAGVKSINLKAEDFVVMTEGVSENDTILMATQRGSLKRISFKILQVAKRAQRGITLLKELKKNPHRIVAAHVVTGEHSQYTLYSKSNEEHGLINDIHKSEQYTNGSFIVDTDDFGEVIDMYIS
T1 sequence (P0C1S7 whole entry): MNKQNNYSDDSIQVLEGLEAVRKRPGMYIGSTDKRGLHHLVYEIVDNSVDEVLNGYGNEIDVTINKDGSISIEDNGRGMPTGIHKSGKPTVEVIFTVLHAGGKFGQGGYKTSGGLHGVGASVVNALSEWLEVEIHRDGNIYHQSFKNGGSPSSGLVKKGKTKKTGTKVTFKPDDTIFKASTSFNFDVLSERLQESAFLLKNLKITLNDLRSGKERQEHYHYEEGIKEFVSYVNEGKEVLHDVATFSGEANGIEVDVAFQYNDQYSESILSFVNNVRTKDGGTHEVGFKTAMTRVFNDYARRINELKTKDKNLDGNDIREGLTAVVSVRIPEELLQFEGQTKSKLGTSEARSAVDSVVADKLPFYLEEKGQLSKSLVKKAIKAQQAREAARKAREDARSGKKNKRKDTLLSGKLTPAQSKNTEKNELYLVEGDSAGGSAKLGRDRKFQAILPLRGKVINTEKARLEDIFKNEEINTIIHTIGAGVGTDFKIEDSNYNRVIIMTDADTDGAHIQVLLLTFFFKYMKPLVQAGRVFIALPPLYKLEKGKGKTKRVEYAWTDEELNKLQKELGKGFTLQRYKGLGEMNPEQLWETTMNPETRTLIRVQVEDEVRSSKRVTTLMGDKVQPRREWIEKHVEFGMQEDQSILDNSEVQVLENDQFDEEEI

## S=C(NCCc1c[nH]c2ccccc12)Nc1cccc(Cl)c1 [Compound 14, 1-(2-(1H-Indol-3-yl)ethyl)-3-(3-chlorophenyl)thiourea]
B. cereus ATCC 11778
  MIC: 25 µg/mL (≈ 75.8 µM)
M. luteus ATCC 10240
  MIC: 12.5 µg/mL (≈ 37.9 µM)
S. aureus ATCC 6538
  zone of inhibition at 400 µg/disc: 13 mm
B. subtilis ATCC 6633
  zone of inhibition at 400 µg/disc: 12 mm
BVDV
  EC50: > 32 µM
HSV-1
  EC50: > 32 µM
[1]
  effect against DNA topoisomerase IV (in words): not significantly effective
In vitro [2]
  CC50: 42 µM
In vitro [3]
  CC50: 6 µM
[4]; [6]
  MIC: 25 µg/mL (≈ 75.8 µM)
[4]; [7]
  MIC: 25 µg/mL (≈ 75.8 µM)
[4]; [8]
  MIC: 25 µg/mL (≈ 75.8 µM)
[4]; [9]
  MIC: 25 µg/mL (≈ 75.8 µM)
[4]; [10]
  MIC: 25 µg/mL (≈ 75.8 µM)
[4]; [11]
  MIC: 25 µg/mL (≈ 75.8 µM)
[4]; [12]
  MIC: 25 µg/mL (≈ 75.8 µM)
[4]; [13]
  MIC: 25 µg/mL (≈ 75.8 µM)
[4]; [14]
  MIC: 25 µg/mL (≈ 75.8 µM)
[4]; [15]
  MIC: 25 µg/mL (≈ 75.8 µM)

## S=C(NCCc1c[nH]c2ccccc12)Nc1ccc(Cl)c(Cl)c1 [Compound 6, 1-(2-(1H-indol-3-yl)ethyl)-3-(3,4-dichlorophenyl)thiourea]
B. cereus ATCC 11778
  MIC: 6.25 µg/mL (≈ 17.2 µM)
M. luteus ATCC 10240
  MIC: 6.25 µg/mL (≈ 17.2 µM)
S. aureus ATCC 6538
  zone of inhibition at 400 µg/disc: 16 mm
B. subtilis ATCC 6633
  zone of inhibition at 400 µg/disc: 15 mm
BVDV
  EC50: > 27 µM
HSV-1
  EC50: > 13 µM
In vitro [2]
  CC50: 45 µM
In vitro [3]
  CC50: 10 µM
[5]
  IC50: 79.3 µM
[4]; [6]
  MIC: 6.25 µg/mL (≈ 17.2 µM)
[4]; [7]
  MIC: 6.25 µg/mL (≈ 17.2 µM)
[4]; [8]
  MIC: 6.25 µg/mL (≈ 17.2 µM)
[4]; [9]
  MIC: 6.25 µg/mL (≈ 17.2 µM)
[4]; [10]
  MIC: 6.25 µg/mL (≈ 17.2 µM)
[4]; [11]
  MIC: 6.25 µg/mL (≈ 17.2 µM)
[4]; [12]
  MIC: 6.25 µg/mL (≈ 17.2 µM)
[4]; [13]
  MIC: 6.25 µg/mL (≈ 17.2 µM)
[4]; [14]
  MIC: 6.25 µg/mL (≈ 17.2 µM)
[4]; [15]
  MIC: 6.25 µg/mL (≈ 17.2 µM)
